Results as given in patent US20070208087A1, “Compounds, compositions and methods for the treatment of inflammatory diseases” (priority 2001, published 2007).
Where “and” joins values, the source holds several entries; their conditions need not be identical. Equal entries are not always repeated.

Experiments:
Assay type in all cases: cell-based
[1] = tested on: EOC 13.31 microglia cells; test: NO release inhibition in LPS/IFNγ stimulated microglia, concurrent treatment, Griess reaction at 24 hours (Example 6); conditions: for inhibition at 50 µM: Microglia; for OD Values: Griess; for OD Values / NO release: single replicates
Method: The purpose of this experiment was to screen compounds 3, 4, 21, 26, 51, 52, 66, and 78 for their ability to inhibit Nitric oxide release from microglia. […] EOC 13.31 microglia cells were plated into 96 well plates for 24 hours. Confluent cells were treated with 50 μM of the bis- and tris-dihydroxyaryl compounds either with or without stimulation at 1 pg/ml LPS, and 1 ng/ml IFNγ. NO release was measured at 24 hours using the Griess reaction which is a spectrophotometric measure of NO release (reagents from Promega).

[2] = tested on: EOC 13.31 microglia cells; test: Inhibition of NO release from microglia following 24 hours pretreatment (Example 10); conditions: for inhibition at 50 µM: Microglia
In short: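 Confluent EOC 13.31 cells pretreated 24 hours with 50 μM compound (from 10 mM DMSO stock), then stimulated with 10 μg/ml LPS plus 10 ng/ml IFNγ without media change. After a further 48 hours, NO release was measured by Griess Reaction.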

[3] = tested on: TNF-α release from microglia; test: TNF-α release from LPS/IFNγ stimulated microglia, TNF-α ELISA (Example 11); conditions: 50 uM compound, TNF-α release, 10 ug LPS and 10 ng IFNγ, 24 hours
Method: Also, bis- and tris-dihydroxyaryl compound's ability to inhibit NO release strongly supports their interference with the inflammatory cascade and utlimately inhibition of inflammation. Microglia cells were plated at 1×10^5 cells/ml into 96 well plates. At day three, they were treated with 50 μM bis- and tris-dihydroxyaryl compound for 1 hour and then exposed to 10 μg/ml LPS+10 ng/ml IFNγ for 24 hours. 10 μl of media was removed and stored at −80° until TNF-α ELISA assays were performed. Samples were diluted 1:50 before running the TNF-α ELISA (kit commercially available from Sigma).

microglia = test: Ranking of NO release inhibition (Example 12); conditions: ranking table
Text: The bis- and tris-dihydroxyaryl compounds were ranked in order of effectiveness for the inhibition of NO release as set out in Table 8.

[4] = tested on: EOC 13.31 microglial cells; test: NO release inhibition screen in LPS/IFNγ stimulated microglia, Griess reaction at 48 hours (Example 7)
Method: In this experiment, additional bis- and tris-dihydroxyaryl compounds were screened for their ability to inhibit nitric oxide release from microglial cells. Microglial cells stimulated with LPS/IFNγ release nitric oxide. […] This is a continuation of screening experiments. EOC 13.31 microglial cells were plated into 96 well plates. At 24 hours and at confluency, cells were treated with 10 μg/ml LPS/10 ng/ml IFNγ+50 uM bis- and tris-dihydroxyaryl compounds.

Microglial cells = test: Dose response inhibition of NO release from microglia, 0.75-200 μM (Example 8); conditions: for Avg % Inhibition / μM NO release Avg / % inhibition / OD values (printed under head μM NO release) / μM NO release: 48 hours; for % inhibition / OD values (printed under head μM NO release) / μM NO release: single replicates
Method: This experiment was designed to determine dose response inhibition of NO release from microglia by bis- and tris-dihydroxyaryl compounds when stimulated with LPS/IFNγ. […] This experiment is designed to determine a dose response for various bis- and tris-dihydroxyaryl compounds. Microglial cells were plated into 96 well plates at 1×10^5 cells/ml. […] The doses tested were: 0.75 μM, 1.56 μM, 3.125 μM, 6.25 μM, 12.5 μM, 25 μM, 50 μM, 100 μM and 200 μM. Nitric oxide release was measured after 48 hours using the Griess reaction.

[5] = Compound + LPS/IFNγ, 50 μM, 24 hours
[6] = Compound Only (without LPS/IFNγ), 50 μM, 24 hours
[7] = 50 uM pretreatment 24 hours, then LPS/IFNγ 48 hours, single replicates
[8] = 50 uM + 10 μg/ml LPS/10 ng/ml IFNγ, 48 hours
[9] = 50 uM + 10 μg/ml LPS/10 ng/ml IFNγ, 48 hours, single replicates

Question: `O=C(NCc1ccc(O)c(O)c1)c1ccc(O)c(O)c1` [Compound 52, 3,4-dihydroxybenzoic acid 3,4-dihydroxybenzylamide] was tested. Which “NO release, Avg” value [1, 5] did it give?
Answer: 16.2840 µM

Question: And the “NO release, Avg” value [1, 6]?
Answer: -0.0417 µM

Question: What about the inhibition at 50 µM ([1]; Compound + LPS/IFNγ, 24 hours, read-out: % inhibition of NO release) of the same compound?
Answer: 12.6%

Question: And the inhibition at 50 µM ([1]; Table 2 summary, LPS/IFNγ, 24 hours, read-out: % Inhibition (summary of inhibition of NO release))?
Answer: 12.6%

Question: And the “% inhibition” value [2, 7]?
Answer: 80.39% and 81.34%

Question: What about the inhibition at 50 µM ([2]; 50 uM pretreatment 24 hours, then LPS/IFNγ 48 hours, read-out: Avg % Inhibition) of the same compound?
Answer: 80%

Question: What about the inhibition at 50 µM ([2]; 50 uM pretreatment 24 hours, then LPS/IFNγ 48 hours, single replicates, read-out: % inhibition) of the same compound?
Answer: 78.2%

Question: What about the inhibition at 50 µM ([2]; 50 μM pretreatment, read-out: inhibition of NO release following pretreatment) of the same compound?
Answer: > 75%

Question: What about the “% inhibition” value ([3]; individual replicates, 50 µM) of the same compound?
Answer: −12.27% and −26.58% and −30.69%

Question: What about the inhibition at 50 µM ([3]; Microglia, 24 h, read-out: Avg % Inhibition) of the same compound?
Answer: -23.2%

Question: What about the inhibition at 50 µM (microglia; Microglia) of the same compound?
Answer: 13%

Question: How did the “inhibition of NO release, in words” value ([1]; 50 μM, LPS/IFNγ stimulated microglial cells) turn out when `Oc1ccc(Cc2ccc(O)c(O)c2)cc1O` [Compound 3, 3,4,3′,4′-tetrahydroxydiphenylmethane] was run?
Answer: very effective inhibitors of NO release

Question: What about the “% inhibition of NO release” value [1, 5] of the same compound?
Answer: 48.8%

Question: What about the “NO release, Avg” value [1, 5] of the same compound?
Answer: 9.5299 µM

Question: What about the “OD Values” [1, 5] of the same compound?
Answer: 0.094 and 0.137 and 0.145

Question: And the “NO release” value [1, 5]?
Answer: 6.0450 µM and 10.8259 µM and 11.7188 µM

Question: And the “NO release, Avg” value [1, 6]?
Answer: 1.0417 µM

Question: What about the “OD Values” [1, 6] of the same compound?
Answer: 0.053 (2×) and 0.054

Question: And the “NO release” value [1, 6]?
Answer: 1.0000 uM (2×) and 1.1250 uM

Question: And the “% Inhibition (summary of inhibition of NO release)” value ([1]; Table 2 summary, 50 μM, LPS/IFNγ, 24 hours)?
Answer: 48.8%

Question: What about the “Avg. % Inhibition” value [4, 8] of the same compound?
Answer: 96.40%

Question: And the “μM NO release Avg” value [4, 8]?
Answer: 1.000 µM

Question: What about the “OD values (printed under head μM NO release)” value [4, 9] of the same compound?
Answer: 0.064 and 0.055 and 0.062

Question: And the “μM NO release” value [4, 9]?
Answer: 1.393 µM and 0.429 µM and 1.179 µM

Question: What about the “% inhibition” value ([4]; 50 uM + 10 μg/ml LPS/10 ng/ml IFNγ, 48 hours, single replicates, 50 µM) of the same compound?
Answer: 98.46% and 95.75% and 94.98%

Question: And the “inhibition of NO release, in words” value ([4]; 50 uM, LPS/IFNγ stimulated microglia)?
Answer: effective inhibitors of NO release

Question: What about the “Avg % Inhibition” value (Microglial cells; dose 0.75 μM) of the same compound?
Answer: −8.947%

Question: What about the “μM NO release Avg” value (Microglial cells; dose 0.75 μM) of the same compound?
Answer: 21.563 µM

Question: And the “% inhibition” value (Microglial cells; dose 0.75 μM)?
Answer: −3.42% and −6.58% and −16.84%

Question: And the “OD values (printed under head μM NO release)” value (Microglial cells; dose 0.75 μM)?
Answer: 0.2 and 0.183 and 0.187

Question: And the “μM NO release” value (Microglial cells; dose 0.75 μM)?
Answer: 23.125 µM and 20.469 µM and 21.094 µM

Question: And the “μM NO release Avg” value (Microglial cells; dose 1.56 μM)?
Answer: 19.792 µM

Question: And the “% inhibition” value (Microglial cells; dose 1.56 μM)?
Answer: 3.68% (2×) and −7.37%

Question: And the “OD values (printed under head μM NO release)” value (Microglial cells; dose 1.56 μM)?
Answer: 0.188 and 0.174 (2×)

Question: And the “μM NO release” value (Microglial cells; dose 1.56 μM)?
Answer: 21.250 μM and 19.063 μM (2×)

Question: What about the “Avg % Inhibition” value (Microglial cells; dose 3.125 μM) of the same compound?
Answer: 0.789%

Question: What about the “μM NO release Avg” value (Microglial cells; dose 3.125 μM) of the same compound?
Answer: 19.635 µM

Question: What about the “% inhibition” value (Microglial cells; dose 3.125 μM) of the same compound?
Answer: 2.89% and 5.26% and −5.79%

Question: What about the “OD values (printed under head μM NO release)” value (Microglial cells; dose 3.125 μM) of the same compound?
Answer: 0.186 and 0.175 and 0.172

Question: And the “μM NO release” value (Microglial cells; dose 3.125 μM)?
Answer: 20.938 µM and 19.219 µM and 18.750 µM

Question: And the “Avg % Inhibition” value (Microglial cells; dose 6.25 μM)?
Answer: 7.368%

Question: And the “μM NO release Avg” value (Microglial cells; dose 6.25 μM)?
Answer: 18.333 µM

Question: And the “% inhibition” value (Microglial cells; dose 6.25 μM)?
Answer: 10.79% and 10.00% and 1.32%

Question: And the “OD values (printed under head μM NO release)” value (Microglial cells; dose 6.25 μM)?
Answer: 0.177 and 0.165 and 0.166

Question: And the “μM NO release” value (Microglial cells; dose 6.25 μM)?
Answer: 19.531 µM and 17.656 µM and 17.813 µM

Question: What about the “Avg % Inhibition” value (Microglial cells; dose 12.5 μM) of the same compound?
Answer: 6.579%

Question: And the “μM NO release Avg” value (Microglial cells; dose 12.5 μM)?
Answer: 18.490 µM

Question: And the “% inhibition” value (Microglial cells; dose 12.5 μM)?
Answer: 10.00% and 2.89% and 6.84%

Question: And the “OD values (printed under head μM NO release)” value (Microglial cells; dose 12.5 μM)?
Answer: 0.17 and 0.166 and 0.175

Question: What about the “μM NO release” value (Microglial cells; dose 12.5 μM) of the same compound?
Answer: 18.438 µM and 17.813 µM and 19.219 µM

Question: What about the “Avg % Inhibition” value (Microglial cells; dose 25 μM) of the same compound?
Answer: 14.737%

Question: And the “μM NO release Avg” value (Microglial cells; dose 25 μM)?
Answer: 16.875 µM

Question: And the “% inhibition” value (Microglial cells; dose 25 μM)?
Answer: 22.63% and 10.00% and 11.58%

Question: And the “OD values (printed under head μM NO release)” value (Microglial cells; dose 25 μM)?
Answer: 0.164 and 0.15 and 0.166

Question: What about the “μM NO release” value (Microglial cells; dose 25 μM) of the same compound?
Answer: 17.500 µM and 15.313 µM and 17.813 µM

Question: What about the “Avg % Inhibition” value (Microglial cells; dose 50 μM) of the same compound?
Answer: 47.368%

Question: And the “μM NO release Avg” value (Microglial cells; dose 50 μM)?
Answer: 10.417 µM

Question: What about the “% inhibition” value (Microglial cells; dose 50 μM) of the same compound?
Answer: 48.68% and 46.32% and 47.11%

Question: And the “OD values (printed under head μM NO release)” value (Microglial cells; dose 50 μM)?
Answer: 0.119 and 0.117 and 0.12

Question: What about the “μM NO release” value (Microglial cells; dose 50 μM) of the same compound?
Answer: 10.469 µM and 10.156 µM and 10.625 µM

Question: And the “Avg % Inhibition” value (Microglial cells; dose 100 μM)?
Answer: 62.368%

Question: And the “μM NO release Avg” value (Microglial cells; dose 100 μM)?
Answer: 7.448 µM

Question: What about the “% inhibition” value (Microglial cells; dose 100 μM) of the same compound?
Answer: 64.47% and 60.53% and 62.11%

Question: What about the “OD values (printed under head μM NO release)” value (Microglial cells; dose 100 μM) of the same compound?
Answer: 0.1 and 0.097 and 0.102

Question: What about the “μM NO release” value (Microglial cells; dose 100 μM) of the same compound?
Answer: 7.500 µM and 7.031 µM and 7.813 µM

Question: And the “Avg % Inhibition” value (Microglial cells; dose 200 μM)?
Answer: 67% and 67.105%

Question: What about the “μM NO release Avg” value (Microglial cells; dose 200 μM) of the same compound?
Answer: 6.510 µM

Question: And the “% inhibition” value (Microglial cells; dose 200 μM)?
Answer: 68.42% and 66.84% and 66.05%

Question: What about the “OD values (printed under head μM NO release)” value (Microglial cells; dose 200 μM) of the same compound?
Answer: 0.095 and 0.092 and 0.094

Question: And the “μM NO release” value (Microglial cells; dose 200 μM)?
Answer: 6.719 µM and 6.250 µM and 6.563 µM

Question: And the “inhibition of NO release, in words” value (Microglial cells; dose response 0.75-200 μM)?
Answer: effective inhibitors of NO release

Question: And the “Avg % Inhibition” value ([2]; 50 uM pretreatment 24 hours, then LPS/IFNγ 48 hours)?
Answer: 79.87%

Question: And the “% inhibition” value [2, 7]?
Answer: 86.74% and 69.63% and 83.24%

Question: What about the “OD values (printed under head μM NO release)” value [2, 7] of the same compound?
Answer: 0.206 and 0.163 and 0.153

Question: What about the “μM NO release” value [2, 7] of the same compound?
Answer: 6.000 µM and 3.313 µM and 2.621 µM

Question: What about the “% Inhibition at 50 μM (NO release)” value (microglia) of the same compound?
Answer: 30%
